Experimental data reported in patent US20140377171A1, “Imaging and Treatment of Neuroendocrine Tumors with Glucose - Dependent Insulinotropic Polypeptide or Analogues or Antagonists Thereof” (priority 2011, published 2014).

How the values were obtained:
GIP receptors = target: T1, GIP receptors (Homo sapiens, UniProt P48546); assay: In vitro GIP receptor autoradiography: displacement of 125I-GIP(1-30) in tissue sections; type: binding; details: increasing concentrations of cold peptide; tumor and normal pancreatic islets, all examples
T1 construct: from tissue; host or cells: fresh frozen human tumor tissue (neuroendocrine tumors) and non-neoplastic human tissue (pancreatic islets) from surgical resection
T1 sequence (P48546 22-466): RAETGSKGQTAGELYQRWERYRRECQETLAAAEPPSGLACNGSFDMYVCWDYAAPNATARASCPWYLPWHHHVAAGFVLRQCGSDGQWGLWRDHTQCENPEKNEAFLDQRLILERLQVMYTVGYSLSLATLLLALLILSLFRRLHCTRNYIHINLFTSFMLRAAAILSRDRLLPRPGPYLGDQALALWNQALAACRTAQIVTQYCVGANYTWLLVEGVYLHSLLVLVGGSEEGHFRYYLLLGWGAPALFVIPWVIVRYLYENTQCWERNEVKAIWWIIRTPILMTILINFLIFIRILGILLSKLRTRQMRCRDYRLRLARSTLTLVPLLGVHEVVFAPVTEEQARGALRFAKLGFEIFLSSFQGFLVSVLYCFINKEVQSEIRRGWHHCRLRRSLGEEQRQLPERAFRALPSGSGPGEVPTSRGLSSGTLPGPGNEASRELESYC
Experimental: It was radiolabeled by the lactoperoxidase method and purified by HPLC (Anawa, Wangen, Switzerland). The two lodo-Tyrosine analogues (peak 1 iodinated at Tyr^1 and peak 2 iodinated at Tyr^10) were analyzed by LC-ESI-MS-MS (R. Brunisholz, Functional Genomics Center Zürich, ETHZ). […] After incubation, the slides were washed five times in ice-cold Tris-HCl buffer (170 mM; pH 8.2) containing 0.25% BSA and twice in ice-cold Tris-HCl buffer without BSA. The slides were dried for 15 minutes under a stream of cold air and then exposed to Kodak films Biomax MR® for seven days at 4° C. The signals on the films were analyzed in correlation with morphology using corresponding H&E stained tissue slides. The receptor density was quantitatively assessed using tissue standards for iodinated compounds (Amersham, Aylesbury, UK) and a computer-assisted image processing system (Analysis Imaging System, Interfocus, Mering, Germany).

GIP receptor [1] = details: cited from earlier work
GIP receptor [2] = details: cited from earlier work; remark: listed apart in the source
[3] = tested on: TT cells (human medullary thyroid cancer cells); details: 1 nM to 1000 nM GIP for 3 hours, supernatant
Experimental: Calcitonin levels (C, pg/ml) were determined from the cell supernatant using the Calcitonin-kit from Siemens.
TT cells (derived from a human medullary thyroid carcinoma; ATCC Number: CRL-1803) were plated in 24-well plates (100′000 cells per well) and cultured for 48 hours in growth medium (nutrient mixture F12 Ham Kaighn's modification containing L-glutamine and supplemented with 10% fetal bovine serum) at 37° C. and 5% CO2. Subsequently the growth medium was replaced by the serum-free challenge medium (RPMI 1640, 10 mM HEPES and GlutaMax-I) and the cells were incubated for further 48 hours at 37° C. and 5% CO2. […] As negative control cells were treated with challenge medium containing vehicle alone. The cells were incubated for 3 hours at 37° C. and 5% CO2.

[4] = cited from earlier work; for biological activity: truncated forms of GIP
islet cells = assay: β-Cell imaging with GIP radioligands, ex vivo pancreas autoradiography; type: in vivo, Sprague-Dawley rats; details: i.v., with or without unlabeled GIP(1-30); autoradiography correlated with insulin immunostaining
Description: Animals were euthanized and the pancreas was extracted, immediately frozen, and sectioned. The sections were apposed to radiosensitive films, scanned, and immunostained for insulin.

GLP-2: GLP-2 receptor selective agonist (Bachem)
displacement of 125I-GIP(1-30) (affinity) (GIP receptors): not displaced

GIP19-30: C-terminal GIP fragment capable of receptor binding (QQDFVNWLLAQK; Gastric inhibitory polypeptide; UniProt P09681 70-81, looked up, fragment)
activation of adenylyl cyclase (GIP receptor [1]): activation of adenylyl cyclase | receptor binding (GIP receptor [2]): capable of receptor binding

glucose-dependent insulinotropic polypeptide [GIP]
calcitonin release [3]: stimulates calcitonin release

GIP(1-30): truncated form of GIP; cold human GIP(1-30), parent peptide of the radioligand (YAEGTFISDYSIAMDKIHQQDFVNWLLAQK; Gastric inhibitory polypeptide; UniProt P09681 52-81, looked up, fragment)
biological activity [4]: retain a high degree of biological activity

GIP1-14: GIP fragment capable of receptor binding (YAEGTFISDYSIAM; Gastric inhibitory polypeptide; UniProt P09681 52-65, looked up, fragment)
activation of adenylyl cyclase (GIP receptor [1]): activation of adenylyl cyclase | receptor binding (GIP receptor [2]): capable of receptor binding

GIP1-39: truncated form of GIP (YAEGTFISDYSIAMDKIHQQDFVNWLLAQKGKKNDWKHN; Gastric inhibitory polypeptide; UniProt P09681 52-90, looked up, fragment)
biological activity [4]: retain a high degree of biological activity

GIP7-30-NH2: GIP fragment amide binding with high affinity, antagonist
functional mode at the GIP receptor (GIP receptor [1]): act as antagonists | receptor binding (GIP receptor [2]): high affinity

^111In-DOTA-GIP(1-30): GIP(1-30) carrying 111In complexed through DOTA chelator; GIP radioligand for β-cell imaging
localisation of radioligand binding in pancreas (islet cells): restricted to islet cells

GIP6-30: GIP fragment binding with high affinity, antagonist (FISDYSIAMDKIHQQDFVNWLLAQK; Gastric inhibitory polypeptide; UniProt P09681 57-81, looked up, fragment)
functional mode at the GIP receptor (GIP receptor [1]): act as antagonists | receptor binding (GIP receptor [2]): high affinity

glucagon(1-29): glucagon receptor selective agonist (Bachem)
displacement of 125I-GIP(1-30) (affinity) (GIP receptors): not displaced

GIP3-42: peptide resulting from cleavage of GIP by DPP-IV; antagonist (EGTFISDYSIAMDKIHQQDFVNWLLAQKGKKNDWKHNITQ; Gastric inhibitory polypeptide; UniProt P09681 54-93, looked up, fragment)
functional mode at the GIP receptor (GIP receptor [1]): antagonist of GIP1-42 induced cAMP production | insulinotropic activity ([4]; product of DPP-IV cleavage): lacking insulinotropic activity
